According to patent US8933228B2, “Respiratory formulations and compounds for use therein” (Respivert, Ltd., priority 2010, dated 2015):

What was measured:
[1] = tested on: HRV16; test: Rhinovirus-titre assay; assay type: cell-based, human rhinovirus; settings: Human rhinovirus sp., HRV16; cell not marked b; test compounds 0.04 μg/mL per method (footnote b, 0.2 μg/mL); read-out: HRV titre (inhibitory %): % inhibition observed vs. HRV16 infection control
[2] = biological target: p38 MAPK γ (MAPK12) (Homo sapiens (Human), UniProt P53778); test: Enzyme inhibition assay (FRET, Z-LYTE), p38 MAPK gamma; assay type: biochemical; settings: read-out: Enzyme Profile: IC50 Values p38γ
Outline: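 Recombinant phosphorylated human p38γ preincubated with compound 2 hr at RT in HEPES buffer, then reacted 1 hr with 2 μM FRET peptide and 100 μM ATP. Protease development 1 hr; phosphorylation derived from coumarin/fluorescein emission ratio.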

[3] = tested on: Differentiated U937 cells; test: MTT assay: cell viability; assay type: cell-based, human; settings: 1 μg/ml; for d-U937 MTT Assay 4 h: 5% FCS; for d-U937 MTT Assay 24 h: 10% FCS
Outline: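 Differentiated U937 cells pre-incubated with compound either 4 hr in 5% FCS or 24 h in 10% FCS, then 1 hr MTT. Formazan dissolved in DMSO, absorbance at 550 nm. Percentage viability loss relative to 0.5% DMSO vehicle; apparent increases appear as negative percentages.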

[4] = biological target: HCK enzyme (Homo sapiens (Human), UniProt P08631); test: HCK enzyme inhibition assay (FRET, Z'-LYTE); assay type: biochemical; settings: read-out: Enzyme Profile: IC50 Values HCK
[5] = tested on: TNFα release in d-U937 cells; test: LPS-induced TNFα release in d-U937 cells; assay type: cell-based; settings: Homo sapiens, dU937, LPS 0.1 μg/mL, 4 hr, relative to 10 μg/mL BIRB796, read-out: d-U937 (LPS) TNFα REC50
Outline: (§1)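 U937 cells made macrophage-like by 48–72 h with PMA (100 ng/mL), then stimulated with LPS (E. coli O111:B4) for 4 h. Supernatant TNFα and IL-8 measured by sandwich ELISA; inhibition versus vehicle control at each concentration, REC50 from concentration-response curve.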

[6] = tested on: ICAM-1 expression in BEAS2B cells; test: Poly I:C-induced ICAM-1 induction in BEAS2B cells; assay type: cell-based; settings: Homo sapiens, BEAS-2B; BEAS2B cells, poly I:C 1 μg/mL, 18 hr; read-out: BEAS2B (polyIC) ICAM1 IC50
Outline: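 Human bronchial epithelial BEAS2B cells pre-incubated 2 hr with test compounds at final concentrations, then transfected with poly I:C (1 μg/mL) using Oligofectamine. Cell-surface ICAM-1 quantified by cell-based ELISA with HRP-conjugated anti-rabbit IgG secondary.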

[7] = biological target: p38 MAPK alpha (MAPK14) (Homo sapiens (Human), UniProt Q16539); test: Enzyme inhibition assay (FRET, Z-LYTE), p38 MAPK alpha via MAPKAP-K2 activation; assay type: biochemical; settings: read-out: Enzyme Profile: IC50 Values p38α
Outline: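 Recombinant p38 MAPKα was preincubated with compound 2 hr at RT. Its activity was measured indirectly through MAPKAP-K2 activation/phosphorylation, read by Z-LYTE FRET after 1 hr protease development. Phosphorylation was taken from the coumarin/fluorescein emission ratio.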

[8] = biological target: cSrc enzyme (Homo sapiens (Human), UniProt P12931); test: c-SRC enzyme inhibition assay (FRET, Z'-LYTE); assay type: biochemical; settings: read-out: Enzyme Profile: IC50 Values cSrc
[9] = tested on: IL-8 release in d-U937 cells; test: LPS-induced IL-8 release in d-U937 cells; assay type: cell-based; settings: Homo sapiens, dU937; d-U937 cells, LPS 0.1 μg/mL, 4 hr; read-out: d-U937 (LPS) IL-8 IC50
Outline: as §1

[10] = tested on: TNFα release in THP-1 cells; test: LPS-induced TNFα release in THP-1 cells; assay type: cell-based; settings: Homo sapiens; THP-1 cells, LPS 3 μg/mL, 4 hr; read-out: THP1 (LPS) TNFα IC50
Procedure: The inhibition of TNFα production was calculated at each concentration by comparison with vehicle control.

IC50 [2] | IC50 [4] | EC50 [5] | IC50 [7] | IC50 [8] | IC50 [9] | IC50 [10] | SMILES | inhibition at 0.04 µg/mL [1] | d-U937 MTT Assay 4 h [3] | d-U937 MTT Assay 24 h [3] | IC50 [6]
47 nM | 3 nM | 60 nM | 5 nM | 6 nM | 68 nM | 62 nM | CC(C)(C)c1cc(NC(=O)Nc2ccc(Oc3ccnc4[nH]c(=O)cnc34)c3ccccc23)n(-c2ccc(S(C)(=O)=O)cc2)n1 [Example 31, 1-(3-(tert-butyl)-1-(4-(methylsulfonyl)phenyl)-1H-pyrazol-5-yl)-3-(4-((3-oxo-3,4-dihydropyrido[2,3-b]pyrazin-8-yl)oxy)naphthalen-1-yl)urea] | 8% | − (− and + indicate the result is below and above the no significant effect threshold, respectively (<30% inhibition at a concentration of 1 μg/ml)) | − (− and + indicate the result is below and above the no significant effect threshold, respectively (<30% inhibition at a concentration of 1 μg/ml)) | 178 nM
74 nM | 4 nM | 8.2 nM | 5 nM | 7 nM | 9.4 nM | 13 nM | CSc1ccc(-n2nc(C(C)(C)C)cc2NC(=O)Nc2ccc(Oc3ccnc4[nH]c(=O)cnc34)c3ccccc23)cc1 [Example 33, 1-(3-(tert-butyl)-1-(4-(methylthio)phenyl)-1H-pyrazol-5-yl)-3-(4-((3-oxo-3,4-dihydropyrido[2,3-b]pyrazin-8-yl)oxy)naphthalen-1-yl)urea] | 80% | − (− and + indicate the result is below and above the no significant effect threshold, respectively (<30% inhibition at a concentration of 1 μg/ml)) | − (− and + indicate the result is below and above the no significant effect threshold, respectively (<30% inhibition at a concentration of 1 μg/ml)) | 3.2 nM
